How the values were obtained:
[1] = test system: walnut twig beetle (WTB), Pityophthorus juglandis; experiment: Example 1 Field Test 3: flight response to X with and without enantiomers of trans-conophthorin; assay type: in vivo; conditions: enantiomers of Y tested separately
Description: (§1) Field Bioassays of Semiochemicals. To test the attractiveness of the various compounds of interest, some of the commercially available materials listed above were poured into 15 ml capped polyethylene bottles (Product #s A1-1050/002, A1-1055/002; Contech Enterprises Inc., Delta, British Columbia, Canada) and attached to yellow sticky card traps (Trécé, Adair, OK). In addition, synthesized (+) and (−) enantiomers of trans-conophthorin were tested in 400 μl polyethylene Eppendorf microcentrifuge tubes. Four field studies were conducted (Table 2) that tested the flight responses to: 3-methyl-2-buten-l-ol and related isomers (Field Test 1); 3-methyl-2-buten-l-ol with and without racemic trans-conophthorin (Field Test 2); 3-methyl-2-buten-l-ol with and without the purified enantiomers of trans-conophthorin (Field Test 3); and 3-methyl-2-buten-l-ol with and without racemic chalcogran (Field Test 4).
(§2) Statistical Analysis. Field Tests 1-4 were each analyzed for treatment effect by using Friedman's non-parametric analysis of variance. (See Zar, J. H. 2010. Biostatistical Analysis, 5th Ed. Pearson Prentice Hall, New Jersey). Males and females were subjected to separate analyses. All treatments within experiments yielding a significant treatment effect were compared by using an a posteriori Nemenyi test (Zar 2010) with experimentwise α=0.05. Sex ratios of responding WTB were determined using Cochran's method for unbiased sampling (See Cochran, W. G. 1977. Sampling Techniques, 3rd ed. John Wiley, New York), with 95% confidence intervals calculated by using the Clopper-Pearson method. (See Zar, J. H. 2010. Biostatistical Analysis, 5th Ed. Pearson Prentice Hall, New Jersey).

[2] = test system: walnut twig beetle (WTB), Pityophthorus juglandis; experiment: Example 1 Field Test 2: flight response to X with and without racemic conophthorin; assay type: in vivo; conditions: tested as a racemic mixture
Description: as §1, §2

P. juglandis = experiment: GC-EAD (electroantennal detection) of volatile extract; set-up: species or system Pityophthorus juglandis; conditions: extract of J. hindsii with male and female P. juglandis feeding 45 hr
Description: Gas Chromatography-Electroantennal Detection (GC-EAD). GC-EAD analysis was performed on the extract of walnut (Juglans hindsii) with male and female P. juglandis feeding for 45 hr (pentane extract (7)). The sample was analyzed with an HP5890 GC with the following conditions: DB-5 column 30 m×0.32, oven 50° C. for 1 min, temperature programmed at 20° C./min to a final temperature of 280° C.

WTB [3] = experiment: Example 2 Field Test 3: X and racemic trans-pityol; assay type: in vivo, Pityophthorus juglandis
Description: Finally, a flight bioassay of the effect of the compound racemic trans-“pityol” [2-(1-hydroxy-1-methylethyl)-5-methyltetrahydrofuran] was conducted in late summer/early fall at Wolfskill Experimental Orchards. Pityol is a component of the aggregation pheromone of conifer-infesting Pityophthorus species. The response of WTB to racemic trans-pityol (formulated in a polyvinylchloride plastic bubble cap release device, 40 mg load, 0.2 mg/d release rate at 20° C., product #300000272, Contech Enterprises) and pityol in combination with 3-methyl-2-buten-1-ol (release rate 15-80 mg/d, LDPE plastic pouch Contech) was tested (Table 3, Field Test 3). The four treatments were replicated in three spatial blocks and the treatments were re-randomized among the four trap stations in a block each time the traps were emptied (nearly every day).
(§3) Statistical Analyses. Analysis of treatment effects for the pouch vs. bottle experiment was done by using a sign test. (See Zar, J. H. 2010. Biostatistical Analysis. 5th ed. Pearson Prentice Hall, Englewood Cliffs, N.J.) The other four experiments were analyzed for treatment effect by using Friedman's non-parametric analysis of variance. Id. In all experiments, males and females were analyzed separately. All treatments within experiments yielding a significant treatment effect were compared by using an a posteriori Nemenyi test with experimentwise α=0.05. Id. For all experiments, differences among proportions of female WTB responding to treatments were analyzed by comparing 95% confidence intervals determined with the Clopper-Pearson method. Id.

[4] = test system: walnut twig beetle (WTB), Pityophthorus juglandis; experiment: Example 1 Field Test 4: flight response to X with and without racemic chalcogran; assay type: in vivo
Description: as §1, §2

[5] = test system: walnut twig beetle (WTB), Pityophthorus juglandis; experiment: Example 1 Field Test 1: flight response to X and related isomers, yellow sticky card traps; assay type: in vivo; conditions: Davis CA; for trap catches, female WTB / trap catches, male WTB: about three months in summer, N=21
Description: Field Bioassays of Semiochemicals. […] Contech Enterprises Inc., Delta, British Columbia, Canada) and attached to yellow sticky card traps ([…], OK). In addition, synthesized (+) and (-) enantiomers of trans-conophthorin were tested in 400 μl polyethylene Eppendorf microcentrifuge tubes. Four field studies were conducted (Table 2) that tested the flight responses to: 3-methyl-2-buten-l-ol and related isomers (Field Test 1); 3-methyl-2-buten-l-ol with and without racemic trans-conophthorin (Field Test 2); 3-methyl-2-buten-l-ol with and without the purified enantiomers of trans-conophthorin (Field Test 3); and 3-methyl-2-buten-l-ol with and without racemic chalcogran (Field Test 4). [table] Statistical Analysis. Field Tests 1-4 were each analyzed for treatment effect by using Friedman's non-parametric analysis of variance. (See Zar, J. H. 2010. Biostatistical Analysis, 5th Ed. Pearson Prentice Hall, New Jersey). Males and females were subjected to separate analyses. All treatments within experiments yielding a significant treatment effect were compared by using an a posteriori Nemenyi test (Zar 2010) with experimentwise α=0.05. Sex ratios of responding WTB were determined using Cochran's method for unbiased sampling (See Cochran, W. G. 1977. Sampling Techniques, 3rd ed. John Wiley, New York), with 95% confidence intervals calculated by using the Clopper-Pearson method. (See Zar, J. H. 2010. Biostatistical Analysis, 5th Ed. Pearson Prentice Hall, New Jersey).

WTB [6] = experiment: Example 2 Field Test 1: X in combination with X-3 and X-2; assay type: in vivo, Pityophthorus juglandis; conditions: alone or in combination, at the release rates tested
Description: as §3, with “Field Bioassays of 3-methyl-2-buten-1-ol in combination with other compounds. The flight response of WTB to 3-methyl-2-buten-1-ol in combination with other compounds was also tested. […] Louis, Mo. […] The five treatments were replicated in three spatial blocks and the treatments were re-randomized among the five trap stations in a block each time the traps were emptied (nearly every day). [table] Statistical” for “Statistical”

[7] = 4-unit Lindgren funnel traps, X 15-80 mg/d, pityol 0.2 mg/d, N=93
[8] = yellow sticky card traps, about one month late summer, Davis CA, N=13

CC1CCCC2(CCCO2)O1 (single isomer, unassigned; (-)) [(−)-Y, (−)-trans-conophthorin] was tested, and the “effect on flight response” value [1] was “behaviorally active component”.
CC1CCCC2(CCCO2)O1 (racemic) [Y, 7-methyl-1,6-dioxaspiro[4,5]decane] was tested, and the “effect on flight response” value [2] was “interruptive or repellent” and the “antennal activity by GC-EAD” value (P. juglandis) was “antenally active”.
With CC1CCC(C(C)(C)O)O1 (racemic) [pityol, 2-(1-hydroxy-1-methylethyl)-5-methyltetrahydrofuran] the “proportion of females responding” value (WTB [3]; 4-unit Lindgren funnel traps) was 0.24, the “trap catches, female WTB” value (WTB [3]; [7]) was 11 and the “trap catches, male WTB” value (WTB [3]; [7]) was 32. The “effect on response to 3-methyl-2-buten-1-ol” value (WTB [3]; at the release rates tested) was “did not significantly affect the response to 3-methyl-2-buten-1-ol”.
With CCC1CCC2(CCCO2)O1 (stereo not shown) [Z, 2-ethyl-1,6,-dioxaspiro [4,4]nonane] the “effect on flight response” value ([4]; tested as a racemic mixture) was “interruptive or repellent”, the “proportion of females responding” value ([4]; yellow sticky card traps, Davis CA) was 0.67 and the “trap catches, female WTB” value [4, 8] was “½”. For the same compound, the “trap catches, male WTB” value [4, 8] was “½”.
For CC(C)CCO [X-2, 3-methyl-1-butanol], the “proportion of females responding” value [5] was 0.48, the “trap catches, female WTB” value [5] was 21 and the “trap catches, male WTB” value [5] was 23. For the same compound, the “effect on flight response to 3-methyl-2-buten-1-ol” value (WTB [6]) was “did not significantly affect the flight response of WTB”.
With C=C(C)CCO [X-3, 3-methyl-3-buten-1-ol] the “proportion of females responding” value [5] was 0.33, the “trap catches, female WTB” value [5] was 2 and the “trap catches, male WTB” value [5] was 4. The “effect on flight response to 3-methyl-2-buten-1-ol” value (WTB [6]) was “did not significantly affect the flight response of WTB”.
In the case of CC(C)=CC=O [X-1, 3-methyl-2-butenal], the “proportion of females responding” value [5] is reported as 0.65, the “trap catches, female WTB” value [5] is reported as 20 and the “trap catches, male WTB” value [5] is reported as 11.
